Reference: patent US20230009608A1, “GRK2 INHIBITORS AND USES THEREOF” (Cygnal Therapeutics, Inc., priority 2020, published 2023)

Test system: PAXF1657 control empty vector cell line
Experiment: 7-day proliferation assay, PAXF1657 control empty vector cell line (Example 9)
Type: cell-based
Conditions: 168 h; Cell Line: PAXF1657 empty vector (EV) cell line; 7-day; read-out: C: 7-day proliferation assay: IC50 GeoMean
Description: In order to identify compounds specific for GRK2, we generated two isogenic cell line pairs of the pancreatic cancer cell line PAXF1657, a pair of cells stably overexpressing GRK2 cDNA or the control empty vector and a cell line pair of PAXF1657 GRK2 knockout clonal cells versus non-targeting control clonal cells.
Proliferation Assay: Cellular anti-proliferative activity of compounds was assessed by using the pancreatic cancer cell line, PAXF1657, stably overexpressing GRK2 cDNA or the control empty vector, as well as the parental urinary bladder cancer cell line, 5637. In addition, we also took advantage of GRK2 knockout cell lines that were generated via CRISPR. Cell lines were seeded into tissue culture treated, white-walled, 96-well plates at a density of 500 cells/well in RPMI1640 media supplemented with 10% H.I. FBS and penicillin/streptomycin. Plates were incubated overnight at 37° C., 5% CO2 to allow cells to adhere to the wells. GRK2 inhibitors were added to the cells using a 10-point dilution series with a final concentration ranging from 30 μM-0.0002 μM in 0.3% DMSO. At the time of compound addition, a set of plates, that were not treated with compounds, were collected and cell viability was measured using CellTiter-Glo (Promega). CellTiter-Glo reagent was added to the designed plates and luminescence was measuring using a Biotek Synergy plate reader. The compound treated cells were incubated for 3 days at 37° C., 5% CO2. The media was then aspirated from each well and replaced with fresh media containing GRK2 inhibitors. The compound treated cells were then incubated for an additional 4 days at 37° C., 5% CO2. Cell viability was assessed and at end of the 7-day compound treatment by CellTiterGlo.

SMILES	IC50
Cn1c(CNc2cccc(C(=O)NC(C)(C)c3ncccn3)c2)nnc1-c1ccncn1	> 10 µM
Cc1nc(C)c(CNC(=O)c2cccc(NCc3nnc(-c4ccncc4)[nH]3)c2)o1	> 10 µM
CC1(CNC(=O)c2cccc(NCc3nnc(-c4ccncc4)[nH]3)c2)CCCOC1 (centres unmarked)	> 10 µM
O=C(NCc1nnc2n1CCC(C(F)(F)F)C2)c1cccc(NCc2nnc(-c3ccncc3)[nH]2)c1 (centres unmarked)	89.3 µM
Cn1c(CNc2cccc(C(=O)NC(c3ncccn3)C(C)(C)C)c2)nnc1-c1ccncn1 (centres unmarked)	> 10 µM
CCn1nc(C)c(CNC(=O)c2cccc(NCc3nnc(-c4ccncc4)[nH]3)c2)c1C	> 10 µM
CCc1cc(CNC(=O)c2cccc(NCc3nnc(-c4ccncn4)n3C)c2)no1	3.55 µM
CCN(CC)Cc1ccccc1CNC(=O)c1cccc(NCc2nnc(-c3ccncn3)n2C)c1	> 10 µM
CC(O)C(NC(=O)c1cccc(NCc2nnc(-c3ccncn3)n2C)c1)c1ccccc1 (centres unmarked)	1.76 µM
Cn1c(CNc2cccc(C(=O)NCc3cn[nH]c3)c2)nnc1-c1ccncn1	> 10 µM
O=C(NCc1cccnn1)c1cccc(NCc2nnc(-c3ccncc3)[nH]2)c1	> 10 µM
CCOc1ccccc1CNC(=O)c1cccc(NCc2nnc(-c3ccncc3)[nH]2)c1	> 30 µM
[2H]C([2H])(Nc1cccc(C(=O)N[C@@H]2COCc3ccccc32)c1)c1nnc(-c2ccncn2)n1C	0.116 µM
CN(C)CCC(NC(=O)c1cccc(NCc2nnc(-c3ccncc3)[nH]2)c1)c1cccnc1 (centres unmarked)	> 10 µM
Cn1cc(C(NC(=O)c2cccc(NCc3nnc(-c4ccncn4)n3C)c2)c2ccc(F)cc2)cn1 (centres unmarked)	> 10 µM
C[C@H](NC(=O)c1cccc(NCc2nnc(-c3ccncn3)n2C)c1)c1ncccc1F	0.738 µM
Cn1c(CNc2cccc(C(=O)NC3CCCc4ncccc43)c2)nnc1-c1ccncn1 (centres unmarked)	2.5 µM
Cc1ccnc(CNC(=O)c2cccc(NCc3nnc(-c4ccncn4)n3C)c2)n1	> 10 µM
Cn1c(CNc2cccc(C(=O)NCc3ncccn3)c2)nnc1-c1ccncn1	> 10 µM
Cn1c(CNc2cccc(C(=O)N[C@H]3c4ccccc4CC[C@H]3O)c2)nnc1-c1ccncn1	> 10 µM
CC(C)C(NC(=O)c1cccc(NCc2nnc(-c3ccncn3)n2C)c1)c1nncn1C (centres unmarked)	> 10 µM
O=C(NCc1cccnc1-n1ccnc1)c1cccc(NCc2nnc(-c3ccncc3)[nH]2)c1	> 10 µM

SMILES	IC50
CC(NC(=O)c1cccc(NCc2nnc(-c3ccncn3)n2C)c1)c1ccn[nH]1 (centres unmarked)	> 10 µM
CCn1nc(C)c(CNC(=O)c2cccc(NCc3nnc(-c4ccncn4)n3C)c2)n1	0.555 µM
Cn1c(CNc2cccc(C(=O)NCc3ccc4c(c3)CNC4=O)c2)nnc1-c1ccncn1	> 10 µM
C[C@H](NC(=O)c1cccc(NCc2nnc(-c3ccncc3)[nH]2)c1)c1ccncc1	> 10 µM
CN1CCN(c2nccc(CNC(=O)c3cccc(NCc4nnc(-c5ccncn5)n4C)c3)n2)CC1	> 10 µM
O=C(NC1(c2ccncc2)CC1)c1cccc(NCc2nnc(-c3ccncc3)[nH]2)c1	> 10 µM
Cc1n[nH]cc1CNC(=O)c1cccc(NCc2nnc(-c3ccncc3)[nH]2)c1	> 10 µM
Cn1c(CNc2cccc(C(=O)NC3(c4ccccn4)CCC3)c2)nnc1-c1ccncn1	> 10 µM
Cn1ncnc1CNC(=O)c1cccc(NCc2nnc(-c3ccncc3)[nH]2)c1	> 10 µM
Cc1cc(CNC(=O)c2cccc(NCc3nnc(-c4ccncn4)n3C)c2)ccn1	> 10 µM
Cc1nc(CNC(=O)c2cccc(NCc3nnc(-c4ccncn4)n3C)c2)c[nH]1	> 10 µM
CC1CC(NC(=O)c2cccc(NCc3nnc(-c4ccncn4)n3C)c2)c2ncnn21 (centres unmarked)	> 10 µM
O=C(NCc1ccncn1)c1cccc(NCc2nnc(-c3ccncc3)[nH]2)c1	> 10 µM
C[C@H](NC(=O)c1cccc(NCc2nnc(-c3ccncc3)[nH]2)c1)c1ccnn1C	9.81 µM
Cn1nccc1C(NC(=O)c1cccc(NCc2nnc(-c3ccncn3)n2C)c1)c1ccccc1 (centres unmarked)	> 10 µM
CNc1cc(CNC(=O)c2cccc(NCc3nnc(-c4ccncc4)[nH]3)c2)ccn1	> 10 µM
Cn1c(CNc2cccc(C(=O)NCc3ccccc3C(F)(F)F)c2)nnc1-c1ccncn1	1.15 µM
CCn1cnnc1CNC(=O)c1cccc(NCc2nnc(-c3ccncc3)[nH]2)c1	> 10 µM
O=C(NCc1ccncc1OCC(F)F)c1cccc(NCc2nnc(-c3ccncc3)[nH]2)c1	> 10 µM
COC[C@H](NC(=O)c1cccc(NCc2nnc(-c3ccncc3)[nH]2)c1)c1cccnc1	> 10 µM
O=C(NC1(c2cccnc2)CC1)c1cccc(NCc2nnc(-c3ccncc3)[nH]2)c1	> 10 µM
Cc1csc(C(C)(C)NC(=O)c2cccc(NCc3nnc(-c4ccncn4)n3C)c2)n1	> 10 µM

SMILES	IC50
COc1ccc2c(c1)OCC[C@@H]2NC(=O)c1cccc(NCc2nnc(-c3ccncn3)n2C)c1	10.1 µM
Cn1c(CNc2cccc(C(=O)NCc3ncoc3C(F)(F)F)c2)nnc1-c1ccncn1	> 10 µM
Cc1nn(C)c(C)c1CNC(=O)c1cccc(NCc2nnc(-c3ccncc3)[nH]2)c1	> 10 µM
CN(C)CCC(NC(=O)c1cccc(NCc2nnc(-c3ccncc3)[nH]2)c1)c1ccccc1 (centres unmarked)	> 10 µM
Cc1csc(CNC(=O)c2cccc(NCc3nnc(-c4ccncn4)n3C)c2)n1 [drawing 407]	0.862 µM
CCC(NC(=O)c1cccc(NCc2nnc(-c3ccncn3)n2C)c1)c1ncccn1 (centres unmarked)	5.39 µM
CC(NC(=O)c1cccc(NCc2nnc(-c3ccncn3)n2C)c1)c1nccn1-c1ccccc1 (centres unmarked)	> 10 µM
CC(NC(=O)c1cccc(NCc2nnc(-c3ccncc3)[nH]2)c1)c1cn[nH]c1 (centres unmarked)	0.323 µM
Cn1cc2c(n1)CCCC2NC(=O)c1cccc(NCc2nnc(-c3ccncc3)[nH]2)c1 (centres unmarked)	> 10 µM
O=C(NC[C@H]1COCCO1)c1cccc(NCc2nnc(-c3ccncc3)[nH]2)c1	1.12 µM
C[C@H](NC(=O)c1cccc(NCc2nnc(-c3ccncn3)n2C)c1)c1ccccn1	2.58 µM
O=C(NCCc1ncccn1)c1cccc(NCc2nnc(-c3ccncc3)[nH]2)c1	> 10 µM
Cc1cccc(CNC(=O)c2cccc(NCc3nnc(-c4ccncn4)n3C)c2)n1	3.92 µM
Cn1c(CNc2cccc(C(=O)NCc3nncn3C3CC3)c2)nnc1-c1ccncn1	> 10 µM
CC(NC(=O)c1cccc(NCc2nnc(-c3ccncc3)[nH]2)c1)c1ncnn1C (centres unmarked)	> 10 µM
Cc1ncc(CNC(=O)c2cccc(NCc3nnc(-c4ccncn4)n3C)c2)s1	> 10 µM
Cn1c(CNc2cccc(C(=O)NCc3ccnc(C(F)(F)F)c3)c2)nnc1-c1ccncn1	0.995 µM
Cn1c(CNC(=O)c2cccc(NCc3nnc(-c4ccncc4)[nH]3)c2)nnc1C1CCC1	> 10 µM
COc1cnccc1C(C)NC(=O)c1cccc(NCc2nnc(-c3ccncc3)[nH]2)c1 (centres unmarked)	> 10 µM
Cn1c(CNc2cccc(C(=O)NCc3ccccc3-n3cncn3)c2)nnc1-c1ccncn1	> 10 µM
CC[C@H](NC(=O)c1cccc(NCc2nnc(-c3ccncn3)n2C)c1)c1ccccn1	> 10 µM
Cn1c(CNC(=O)c2cccc(NCc3nnc(-c4ccncc4)[nH]3)c2)nnc1C1CC1	> 10 µM

SMILES	IC50
Cn1c(CNc2cccc(C(=O)N[C@H]3CCOc4c(F)cc(F)cc43)c2)nnc1-c1ccncn1	> 10 µM
O=C(NC1(c2ncccn2)CC1)c1cccc(NCc2nnc(-c3ccncc3)[nH]2)c1	> 10 µM
Cc1nc(C2(NC(=O)c3cccc(NCc4nnc(-c5ccncn5)n4C)c3)CC2)cs1	4.74 µM
O=C(NCc1nccn1CC(F)(F)F)c1cccc(NCc2nnc(-c3ccncc3)[nH]2)c1	> 10 µM
CC(C)n1ncnc1CNC(=O)c1cccc(NCc2nnc(-c3ccncc3)[nH]2)c1	> 10 µM
COCCn1cc(C(C)NC(=O)c2cccc(NCc3nnc(-c4ccncc4)[nH]3)c2)cn1 (centres unmarked)	> 10 µM
Cn1c(CNc2cccc(C(=O)NC(CO)c3cccc(F)c3)c2)nnc1-c1ccncn1 (centres unmarked)	2.48 µM
Cn1c(CNc2cccc(C(=O)NC3(c4ccc(F)cn4)CC3)c2)nnc1-c1ccncn1	0.291 µM
C[C@H](NC(=O)c1cccc(NCc2nnc(-c3ccncc3)[nH]2)c1)c1cnnn1C	> 10 µM
C[C@H](NC(=O)c1cccc(NCc2nnc(-c3ccncn3)n2C)c1)c1cncc(F)c1	2.3 µM
O=C(NCC1CC1(F)F)c1cccc(NCc2nnc(-c3ccncc3)[nH]2)c1 (centres unmarked)	> 10 µM
Cn1cc(C(C)(C)NC(=O)c2cccc(NCc3nnc(-c4ccncn4)n3C)c2)cn1	> 10 µM
CCN(CC)C(=O)C(NC(=O)c1cccc(NCc2nnc(-c3ccncn3)n2C)c1)c1ccccc1 (centres unmarked)	> 10 µM
Cn1c(CNc2cccc(C(=O)NCc3cc(C(F)(F)F)ccn3)c2)nnc1-c1ccncn1	> 10 µM
CC(C)n1ncnc1CNC(=O)c1cccc(NCc2nnc(-c3ccncn3)n2C)c1	> 10 µM
COc1ccnc(CNC(=O)c2cccc(NCc3nnc(-c4ccncn4)n3C)c2)c1	3.15 µM
CO[C@H]1C[C@H](CNC(=O)c2cccc(NCc3nnc(-c4ccncc4)[nH]3)c2)C1	> 10 µM
COc1cccc(CNC(=O)c2cccc(NCc3nnc(-c4ccncn4)n3C)c2)c1OC	> 10 µM
Cn1cnnc1CNC(=O)c1cccc(NCc2nnc(-c3ccncc3)[nH]2)c1	> 10 µM
Cc1nnc(CNC(=O)c2cccc(NCc3nnc(-c4ccncc4)[nH]3)c2)n1C	> 10 µM
